Experiments:
[1] = test system: Breast Cancer patient tumor tissue; assay: "Clinical Response Predictor" explant analysis (M-score), Breast cancer; type: cell-based, human; parameters: key: 0-100 composite M-score from proprietary algorithm
Source text: “Clinical Response Predictor” is a patient segregation tool for matching drugs to patients and patients to the drugs in Oncology. “Clinical Response Predictor” explant model is a personalized functional assay that helps predict the response of the patient under investigation to a set of approved drugs for his/her type of cancer. This is done using fresh patient tumor tissue from solid cancers in a specially coated 96/384 well plate. The plates are coated with specific set of Extra Cellular Matix. Further, patient derived autologous ligands are added to the culture. Angiogenic factors are added to maintain tumor vasculature. In case of immunomodulator drugs, autologus immune cells are added to the culture. In the case of haematological malignancies, patient plasma is cultured in the 96/384 well format. The test is carried out in multiplicates to take into account the heterogeneous nature of cancer. “Clinical Response Predictor” results are measured by both kinetic as well as end-point assays. Cell Viability, Cell death, Cell proliferation, cell metabolism, senescence, tumor morphology are some of the parameters assessed. Each of these parameters is measured by more than one assay. For e.g.: Cell Viability is measured by WST, ATP uptake and Glucose uptake assays. Cell Proliferation and Metabolism is measured by Ki67, PCNA (proliferating nuclear cell antigen), ATP/ADP ratio and Glucose uptake. Cell death is assessed by LDH, Activated Caspase 3, Activated Caspase 8 & Nitric Oxide Synthase and TUNEL. Tumor morphology is assessed by H&E to look at the tumor cell content, size of the tumor cells, ratio of viable cells/dead cells, ratio of tumor cells/normal cells, and tumor/macrophage ratio, nuclear size and density and integrity, apoptotic bodies and mitotic figures. Results from each of the assays are expressed in numeric form and is converted using a proprietary algorithm into a single 0-100 metric called “M-score”.
Alternatively, when the tumor source is a xenograft, tumor from mice is excised and further subjected to explant analysis as described below. In another embodiment, the tumor is obtained and is implanted into the mice, thereafter it is allowed to grow, then excised and then subjected to the instant “Clinical Response Predictor” analysis. Post obtaining the, tissue sample, it is divided for obtaining various inputs from a) explant assay, b) Histology based assays like IHC (immunohistochemistry)/H&E, and c) efficacy analysis from primary tumor derived xenografts. • A) Tissue sample given for explant analysis is sliced using Leica Vibratome to generate sections of about 100-3000 μm thickness. These sections are cultured in plates coated with the cancer type specific ECM composition in quadruplicate with media containing autologous sera and also various drugs optionally, for a period of about 48-96 hours. Media with drug and enriched with serum/plasma/PBMCs/serum derived ligands is changed every 24 hours. Post this period MTT/WST analysis is done to assess percent cell viability (end point assay). The supernatant from the media culture is removed every 24 hrs and assessed for proliferation (using ATP and glucose utilization experiments) and cell death (by assessment of lactate dehydrogenase assays and caspase-3 and caspase 8 measurements) to give kinetic response trends. Results are quantified against a drug untreated control. […] The tissue sections both treated and untreated are also given for histological evaluation at the end of the culture period. • B) The tissues given for histological evaluation are assessed for apoptosis by TUNEL and activated caspase 3 assay. Also cell proliferation is assayed for standard proliferation markers like Ki67.

[2] = test system: Head and Neck Cancer patient tumor tissue; assay: "Clinical Response Predictor" explant analysis (M-score / Sensitivity Index), Head and Neck cancer; type: cell-based, human; settings: Right pyriform sinus
Source text: (§1) “Clinical Response Predictor” is a patient segregation tool for matching drugs to patients and patients to the drugs in Oncology. “Clinical Response Predictor” explant model is a personalized functional assay that helps predict the response of the patient under investigation to a set of approved drugs for his/her type of cancer. This is done using fresh patient tumor tissue from solid cancers in a specially coated 96/384 well plate. The plates are coated with specific set of Extra Cellular Matix. Further, patient derived autologous ligands are added to the culture. Angiogenic factors are added to maintain tumor vasculature. In case of immunomodulator drugs, autologus immune cells are added to the culture. […] “Clinical Response Predictor” results are measured by both kinetic as well as end-point assays. Cell Viability, Cell death, Cell proliferation, cell metabolism, senescence, tumor morphology are some of the parameters assessed. Each of these parameters is measured by more than one assay. For e.g.: Cell Viability is measured by WST, ATP uptake and Glucose uptake assays. Cell Proliferation and Metabolism is measured by Ki67, PCNA (proliferating nuclear cell antigen), ATP/ADP ratio and Glucose uptake. Cell death is assessed by LDH, Activated Caspase 3, Activated Caspase 8 & Nitric Oxide Synthase and TUNEL. […]

[3] = test system: Ovary Cancer patient tumor tissue; assay: "Clinical Response Predictor" explant analysis (M-score), Ovary cancer; type: cell-based, human
Source text: as §1

[4] = test system: Pancreatic Cancer patient tumor tissue; assay: "Clinical Response Predictor" explant analysis (M-score), Pancreatic cancer; type: cell-based, human
Source text: as §1

[5] = test system: Liver Cancer patient tumor tissue; assay: "Clinical Response Predictor" explant analysis (M-score), Liver cancer; type: cell-based, human; settings: for M-Score: liver
Source text: “Clinical Response Predictor” is a patient segregation tool for matching drugs to patients and patients to the drugs in Oncology. “Clinical Response Predictor” explant model is a personalized functional assay that helps predict the response of the patient under investigation to a set of approved drugs for his/her type of cancer. This is done using fresh patient tumor tissue from solid cancers in a specially coated 96/384 well plate. The plates are coated with specific set of Extra Cellular Matix. Further, patient derived autologous ligands are added to the culture. Angiogenic factors are added to maintain tumor vasculature. In case of immunomodulator drugs, autologus immune cells are added to the culture. In the case of haematological malignancies, patient plasma is cultured in the 96/384 well format. The test is carried out in multiplicates to take into account the heterogeneous nature of cancer. “Clinical Response Predictor” results are measured by both kinetic as well as end-point assays. Cell Viability, Cell death, Cell proliferation, cell metabolism, senescence, tumor morphology are some of the parameters assessed. Each of these parameters is measured by more than one assay. For e.g.: Cell Viability is measured by WST, ATP uptake and Glucose uptake assays. Cell Proliferation and Metabolism is measured by Ki67, PCNA (proliferating nuclear cell antigen), ATP/ADP ratio and Glucose uptake. Cell death is assessed by LDH, Activated Caspase 3, Activated Caspase 8 & Nitric Oxide Synthase and TUNEL. Tumor morphology is assessed by H&E to look at the tumor cell content, size of the tumor cells, ratio of viable cells/dead cells, ratio of tumor cells/normal cells, and tumor/macrophage ratio, nuclear size and density and integrity, apoptotic bodies and mitotic figures. Results from each of the assays are expressed in numeric form and is converted using a proprietary algorithm into a single 0-100 metric called “M-score”. […]
Alternatively, when the tumor source is a xenograft, tumor from mice is excised and further subjected to explant analysis as described below. […] The supernatant from the media culture is removed every 24 hrs and assessed for proliferation (using ATP and glucose utilization experiments) and cell death (by assessment of lactate dehydrogenase assays and caspase-3 and caspase 8 measurements) to give kinetic response trends. Results are quantified against a drug untreated control. […] The tissue sections both treated and untreated are also given for histological evaluation at the end of the culture period. • B) The tissues given for histological evaluation are assessed for apoptosis by TUNEL and activated caspase 3 assay. […]

[6] = test system: Stomach Cancer patient tumor tissue; assay: "Clinical Response Predictor" explant analysis (M-score), Stomach cancer; type: cell-based, human
Source text: as §1

[7] = test system: Glioblastoma patient tumor tissue; assay: "Clinical Response Predictor" explant analysis (M-score), Glioblastoma; type: cell-based, human; settings: Glioblastoma patient tumor sample, Table 3
Source text: as §1

[8] = test system: Glioblastoma, Ca-Ovary, Ca-Breast, Ca-Oesophagus, Ca-Pancreas, Ca-Stomach; assay: Clinical outcome of patients (PETCT or CT), other solid cancers; type: in vivo, human; settings: evaluated at the end of 6-8 months by PETCT or CT
Protocol: The figure details that the tumor tissue from the patient is analyzed using explant read out, primary Human tumor xenograft readout and then subjected to a variety of genomic and proteomic profiling accompanied by histological analysis and final correlation with patient clinical data for the chemotherapy regimen. All these input parameters together generate the “Clinical Response Predictor”. The integrated preclinical prediction model is designed based on functional “Clinical Response Predictor” screening platform and M Score prompted by it. Tumor tissues are collected from clinics prior to initiation of treatment. Clinical outcome (PERCIST/RECIST) data are collected before and after completion of 3 cycles of chemotherapy (top of the FIG. 1). Concomitantly, after resection/biopsy tumors are treated with same Standards of Care [SOC] or targeted drugs as that received by patients using an “Clinical Response Predictor” driven explants platform. This leads to the extensive functional and molecular characterization (middle of the FIG. 1). […] The combined data from this platform is integrated for determining the M-score and thereafter correlated with PERCIST/RECIST obtained from patient after 3rd to 6th cycle of therapy.
The “Clinical Response Predictor” outcome (M-score) is then compared with clinical outcome.

[9] = test system: Colon Cancer patient tumor tissue; assay: "Clinical Response Predictor" explant analysis (M-score), Colon / Colorectum cancer; type: cell-based, human
Source text: “Clinical Response Predictor” is a patient segregation tool for matching drugs to patients and patients to the drugs in Oncology. “Clinical Response Predictor” explant model is a personalized functional assay that helps predict the response of the patient under investigation to a set of approved drugs for his/her type of cancer. This is done using fresh patient tumor tissue from solid cancers in a specially coated 96/384 well plate. The plates are coated with specific set of Extra Cellular Matix. Further, patient derived autologous ligands are added to the culture. Angiogenic factors are added to maintain tumor vasculature. In case of immunomodulator drugs, autologus immune cells are added to the culture. In the case of haematological malignancies, patient plasma is cultured in the 96/384 well format. The test is carried out in multiplicates to take into account the heterogeneous nature of cancer. “Clinical Response Predictor” results are measured by both kinetic as well as end-point assays. Cell Viability, Cell death, Cell proliferation, cell metabolism, senescence, tumor morphology are some of the parameters assessed. Each of these parameters is measured by more than one assay. For e.g.: Cell Viability is measured by WST, ATP uptake and Glucose uptake assays. Cell Proliferation and Metabolism is measured by Ki67, PCNA (proliferating nuclear cell antigen), ATP/ADP ratio and Glucose uptake. Cell death is assessed by LDH, Activated Caspase 3, Activated Caspase 8 & Nitric Oxide Synthase and TUNEL. Tumor morphology is assessed by H&E to look at the tumor cell content, size of the tumor cells, ratio of viable cells/dead cells, ratio of tumor cells/normal cells, and tumor/macrophage ratio, nuclear size and density and integrity, apoptotic bodies and mitotic figures. […]
Alternatively, when the tumor source is a xenograft, tumor from mice is excised and further subjected to explant analysis as described below. […] Results are quantified against a drug untreated control. […]

[10] = Example 13.11: patient, Breast Cancer, Regional Lymph node (R) Breast, T3N1M0, metastasis and recc
[11] = Example 13.14: patient, T4N0M0, primary

Compound: CC(C)(C#N)c1cc(Cn2cncn2)cc(C(C)(C)C#N)c1 [Anastrozole]
- M-Score [1, 10]: 20

Compound: CCCCCOC(=O)Nc1nc(=O)n([C@@H]2O[C@H](C)[C@@H](O)[C@H]2O)cc1F [Capecitabine]
- M-Score [1, 10]: 26

Compound: N.N.[Cl][Pt][Cl] [Cisplatin]
- M-Score ([2]; Example 13.1: patient, T3N0M0, primary): 64
- M-Score ([2]; Example 13.2: patient, T3/4N2cM0, metastatic lymph node): 39

Compound: CC(=O)O[C@@]12CO[C@@H]1C[C@H](O)[C@@]1(C)C(=O)[C@H](O)C3=C(C)[C@@H](OC(=O)[C@H](O)[C@@H](NC(=O)OC(C)(C)C)c4ccccc4)C[C@@](O)([C@@H](OC(=O)c4ccccc4)[C@H]21)C3(C)C [Docetaxel]
- M-Score ([3]; Example 13.10: patient, primary): 19
- M-Score ([3]; Example 13.9: patient, metastasis): 26
- M-Score [1, 10]: 26

Compound: COc1cccc2c1C(=O)c1c(O)c3c(c(O)c1C2=O)C[C@@](O)(C(=O)CO)C[C@@H]3O[C@H]1C[C@H](N)[C@H](O)[C@H](C)O1 [Doxorubicin]
- M-Score [1, 10]: 17

Compound: C#Cc1cccc(Nc2ncnc3cc(OCCOC)c(OCCOC)cc23)c1 [Erlotinib]
- M-Score ([4]; Example 13.7: patient, tumor site liver, metastasis): 21
- M-Score ([4]; Example 13.8: patient, pancreas, T2N0M0, primary): 14

Compound: Nc1ccn([C@@H]2O[C@H](CO)[C@@H](O)C2(F)F)c(=O)n1 [Gemcitabine]
- M-Score [1, 10]: 21

Compound: CC(=O)O[C@H]1C(=O)[C@@]2(C)[C@H]([C@H](OC(=O)c3ccccc3)[C@]3(O)C[C@H](OC(=O)[C@H](O)[C@@H](NC(=O)c4ccccc4)c4ccccc4)C(C)=C1C3(C)C)[C@]1(OC(C)=O)CO[C@@H]1C[C@@H]2O [Paclitaxel]
- M-Score [1, 10]: 11

Compound: CNC(=O)c1cc(Oc2ccc(NC(=O)Nc3ccc(Cl)c(C(F)(F)F)c3)cc2)ccn1 [Sorafenib]
- "Clinical Response Predictor" analysis suggestion ([5]; Example 13.13: patient, T3NxM1, metastasis): not an optimal therapeutic option
- M-Score ([5]; Example 13.13: patient, T3N×M1, metastasis): 16
- "Clinical Response Predictor" analysis suggestion [5, 11]: an optimal therapeutic option
- M-Score [5, 11]: 46

Compound: CCN(CC)CCNC(=O)c1c(C)[nH]c(/C=C2\C(=O)Nc3ccc(F)cc32)c1C [Sunitinib]
- M-Score ([6]; Example 13.5: patient, pylorus of stomach, metastatic lymph node recc): 25
- M-Score ([6]; Example 13.6: patient, stomach, recc): 09

Compound: Cn1nnc2c(C(N)=O)ncn2c1=O [Temozolomide]
- Sensitivity Index [7]: 49
- Clinical readout RECIST ([8]; Glioblastoma patient): 2

Compound: CCC1=C[C@@H]2CN(C1)Cc1c([nH]c3ccccc13)[C@@](C(=O)OC)(c1cc3c(cc1OC)N(C)[C@H]1[C@@](O)(C(=O)OC)[C@H](OC(C)=O)[C@]4(CC)C=CCN5CC[C@]31[C@@H]54)C2 [Vinorelbine]
- M-Score [1, 10]: 19
- Clinical readout RECIST ([8]; Ca-Breast patients): 2

Compound: Avastin
- M-Score ([9]; Example 13.15: patient, Colorectum Cancer, perineal mass, T3N0M0, recurrent): 20
- M-Score ([1]; Example 13.18: patient, Breast Cancer with mets, Regional lymph node (Rt Br), T3N1M1, recurrent): 18
- M-Score ([1]; Example 13.19: patient, Breast Cancer with SCLN mets, supraclaviculus lymph node, TXNXM2, metastatic): 14

Compound: Panitumumab
- M-Score ([9]; Example 13.3: patient, Colon Cancer, rectosigmoid colon, Stage IV, metastasis): 19
- M-Score ([9]; Example 13.4: patient, Colon Cancer, perineal mass (Ca-Rectum), T3N0M0, Recc): 27

From patent publication US20200064333A1, “ECM COMPOSITION, TUMOR MICROENVIRONMENT PLATFORM AND METHODS THEREOF” (MITRA RXDX INDIA PRIVATE LIMITED, priority 2011, published 2020)
